In patent US20180346920A1, “Mutations Conferring Acetyl-Coa Carboxylase (ACC) Inhibiting Herbicide Tolerance in Sorghum” (Chromatin, Inc., priority 2017, published 2018):

Key:
[1] = test system: FOP herbicide resistant calli (FP-1 to FP-19); assay: Resistant calli tested on higher herbicide concentrations in culture medium; type: cell-based, Sorghum bicolor
Protocol: The herbicide active ingredient molecule of ACC herbicide Assure II (Quizalofop-p-ethyl) was used for screening and selection process. For identifying the optimum concentration for screening, a kill curve experiment with concentrations ranging from 0.05 to 1.0 μM of a.i. molecules were tested. Three week old calli were cut into small pieces of 4-5 mm dia and 25 pieces were tested in three replications for each concentration. Concentrations used were: 0.05, 0.1, 0.2, 0.3, 0.4, 0.5 and 1 μM Quizalofop p-ethyl. As 50% of calli were killed at 0.2 uM concentration, the following selection criteria was followed for entire screening process. Selection process was started with 0.05 um and doubled the concentration for every 3 weeks and the calli surviving on 1.0 uM was considered as resistant calli.
For the chemical mutagenesis, two chemical mutagens Ethyl methanesulfonate (EMS) (0.25 and 0.5%) and Sodium azide (0.5 and 1.0 uM) were used. These mutagens at specified concentration were directly added into the culture media. The calli pieces were first cultured on the media containing the mutagens for 6 and 12 hrs and then transferred to the above mentioned selection procedure. A total of 16 experiments were conducted with varying amount of calli pieces. After 21 to 24 weeks of selection, the surviving calli were considered as herbicide resistant calli. […]

[2] = test system: sorghum (Inbred BTX430) calli; assay: Kill curve experiment on sorghum calli; type: cell-based, Sorghum bicolor; details: 0.2 uM concentration; three week old BTX430 calli
Protocol: Callus production from the isolation of immature embryos (IEs) was accomplished by removing immature seeds from greenhouse grown sorghum (Inbred BTX430) panicles approximately 14 days after anthesis and surface sterilized in ethanol followed by a bleach solution and then washed in sterilized water. Immature embryos were isolated from seeds and transferred to medium with 20 IEs per plate. Cultures were grown for two weeks at (28° C.). All explants which produced somatic embryogenic calli were transferred to growth medium and cultured for an additional 4-6 days at 28° C. Explants were transferred to fresh media every three weeks until the entire callus turned into compact and friable green callus. Three weeks old freshly subcultured calli were used for the experiment
The herbicide active ingredient molecule of ACC herbicide Assure II (Quizalofop-p-ethyl) was used for screening and selection process. For identifying the optimum concentration for screening, a kill curve experiment with concentrations ranging from 0.05 to 1.0 μM of a.i. molecules were tested. Three week old calli were cut into small pieces of 4-5 mm dia and 25 pieces were tested in three replications for each concentration. Concentrations used were: 0.05, 0.1, 0.2, 0.3, 0.4, 0.5 and 1 μM Quizalofop p-ethyl. […]

CCOC(=O)[C@@H](C)Oc1ccc(Oc2cnc3cc(Cl)ccc3n2)cc1 [Quizalofop-p-ethyl]
survival of FOP resistant calli ([1]; 100 μM, FP-7, FP-8, FP-9, FP-10, FP-13, FP-15): surviving | growth of FOP herbicide resistant calli on tissue culture medium ([1]; FP-13, 1, 1.5, 2, 5, 10 μM): growing | calli killed [2]: 50%
